The test system of series [1] is chronic post-TBI patients with motor deficits. Description: Pinch strength (mechanic dynamometer), open-label modafinil study. The class given is in vivo, human. How it is done:
(§1) Two chronic post-TBI patients with motor deficits were treated for two consecutive weeks with modafinil (a single 200 mg/day dose, orally). Additionally, three hours after administration of the drug, these patients received one hour of occupational therapy in the morning and one hour of motor training at home in the afternoon. Primary outcomes were the pinch strength measured with a mechanic dynamometer, the number of blocks that the patient can pass in one minute in a box and block test, and the time required to complete a grooved pegboard test as described below.
The Pinch Force Dynamometer is a hand-held device capable of measuring instantaneous strength of the thumb and opposing finger or groupings of fingers as a function of time. The principle components are a pinch force transducer, instrumentation amplifier, and associated cables. Dynamic voltage representing instantaneous finger(s) pinch strength as a function of time is taken from the output of the instrumentation amplifier and sent to a laptop computer or to a data acquisition system for data manipulation, display, correlation with other data sources, and/or storage.
(§2) Patients were assessed at baseline, treated for two weeks, assessed at the end of the treatment, and assessed again 90 days after commencement of treatment.
(§3) Patients were chronic post-traumatic brain injured individuals that were treated for two consecutive weeks with a 200 mg/day, single dose, of modafinil from Monday through Friday. Additionally, the patients received one hour of occupational therapy three hours after the oral intake of the drug and one hour of motor training at home. Primary outcomes were the pinch strength measured with a mechanic dynamometer, the number of blocks that the patient could pass in one minute in a box and block test, and the time required to complete a grooved pegboard at baseline. Primary outcomes were assessed at two weeks and 90 days from commencement of treatment.

The test system is the same in series [2]. The series can be described thus: Box and Block Test of manual dexterity, open-label modafinil study. The class given is in vivo, human. How it is done:
as §1
The “Box and Block Test” is a standardized test of manual dexterity, which provides a baseline for upper extremity manual dexterity and gross motor coordination. The test is quick and simple to administer and uses […] (1″) colored wooden blocks.
as §2, §3

Series [3] has the same test system. Description: Open-label study: overall functional motor performance and reported adverse effects. The class given is in vivo, human. The following applies: two patients. How it is done:
A clinical study was performed to evaluate the effect of modafinil on the functional outcome of the paretic arm of patients recovering from a brain injury.
as §1, §2, §3

In another series the test system is extracellular dopamine. The following applies: Wisor et al., J. Neuroscience 2001; cited from earlier work.
Series [4] concerns dopamine transporter knock-out mice. The following applies: Wisor et al. 2001; cited from earlier work.
Series [5] has as its system individuals who have sustained a brain injury. The following applies: individuals with brain injury; L-dopa at high doses; co-filed international application; cited from earlier work.

Entries after “also recorded” stand apart in the source; their conditions may differ. Marks after values point to notes of the source that are not given here.

For `NC(=O)C[S+]([O-])C(c1ccccc1)c1ccccc1` (stereo not drawn) [modafinil, 2-[(diphenylmethyl)sulfinyl]acetamide], the “Pinch Strength” value was determined as 16.8 Pounds in series [1] (Patient 1, affected hand, 14 days, modafinil 200 mg/day orally for two weeks plus therapy, baseline 14.3); 17.6 Pounds in series [1] (Patient 1, affected hand, 90 days from commencement, baseline 14.3); 14.6 Pounds in series [1] (Patient 1, intact hand, 14 days, baseline 13.5); 15 Pounds in series [1] (Patient 1, intact hand, 90 days, baseline 13.5); 21.3 Pounds in series [1] (Patient 2, affected hand, 14 days, baseline 17); 19.3 Pounds in series [1] (Patient 2, affected hand, 90 days, baseline 17). Further, the “Pinch Strength” value in series [1] (Patient 2, intact hand, 14 days, baseline 23) is recorded as 24 Pounds; in series [1] (Patient 2, intact hand, 90 days, baseline 23), 23.6 Pounds. The “Box and Block” value was 46 # blocks passed in 1 min in series [2] (Patient 1, affected hand, 14 days, baseline 34); 46 # blocks passed in 1 min in series [2] (Patient 1, affected hand, 90 days, baseline 34); 59 # blocks passed in 1 min in series [2] (Patient 1, intact hand, 14 days, baseline 54); 55 # blocks passed in 1 min in series [2] (Patient 1, intact hand, 90 days, baseline 54); 40 # blocks passed in 1 min in series [2] (Patient 2, affected hand, 14 days, baseline 30); 40 # blocks passed in 1 min in series [2] (Patient 2, affected hand, 90 days, baseline 30). For the same molecule, the “Box and Block” value is given as 65 # blocks passed in 1 min in series [2] (Patient 2, intact hand, 14 days, baseline 54 (table) / 62) and 76 # blocks passed in 1 min in series [2] (Patient 2, intact hand, 90 days, baseline 54 (table) / 62). Also, the “persistence of the improvements” value in series [3] (90 days after commencement of treatment) was “sustained at 90 days”. Further, the “adverse effect reported with the medication” value in series [3] (modafinil 200 mg/day orally, two weeks) is “Neither of the patients reported any adverse effect; also recorded: did not report any adverse effect”. In series [3] (two-week course of modafinil), the “functional motor performance in the intact hand” value is “slight improvement”. Also, the “functional motor performance in the paretic hands” value in series [3] (two-week course of modafinil 200 mg/day orally) was “improved functional motor performance”. Further, the extracellular dopamine entry in the series on extracellular dopamine was “increased extracellular dopamine”. The “response to the action of modafinil” value in series [4] was “unresponsive”.
With `N[C@@H](Cc1ccc(O)c(O)c1)C(=O)O` [L-dopa], the “treating impaired neurological function, including emergence from coma and other altered consciousness states” value in series [5] is given as “particularly effective”.
Regarding `CN1CCc2cccc3c2[C@H]1Cc1ccc(O)c(O)c1-3` [apomorphine], the “treating impaired neurological function, including emergence from coma and other altered consciousness states” value in series [5] is on record as “particularly effective”.

These data come from patent US20070066996A1, “Modafinil-based neurorehabilitation of impaired neurological function associated with brian injury” (priority 2003, published 2007).
